Experimental findings from patent publication US20240269139A1, “COMPOUNDS FOR TARGETED PROTEIN DEGRADATION OF KINASES” (DANA-FARBER CANCER INSTITUTE, INC., priority 2020, published 2024) are described below.

Each structure is given as a SMILES string. Where “and” joins values, the source holds several entries; their conditions need not be identical. Identical values can stand only once. Like-named read-outs stand apart in the source and are kept apart here.

Assay [1] has as its target extended human kinome (kinase-like proteins) (Homo sapiens, UniProt Q16875). The experiment in a line: Whole cell quantitative proteomics: extended kinome hits. As to conditions: Accession Q16875.
For assay [2], the target named is protein kinases (human kinome) (Homo sapiens, UniProt P07947). It counts as cell-based. As to conditions: YES1 (P07947).
Sequence of protein kinases (human kinome) (Homo sapiens, UniProt P07947) (P07947 whole entry): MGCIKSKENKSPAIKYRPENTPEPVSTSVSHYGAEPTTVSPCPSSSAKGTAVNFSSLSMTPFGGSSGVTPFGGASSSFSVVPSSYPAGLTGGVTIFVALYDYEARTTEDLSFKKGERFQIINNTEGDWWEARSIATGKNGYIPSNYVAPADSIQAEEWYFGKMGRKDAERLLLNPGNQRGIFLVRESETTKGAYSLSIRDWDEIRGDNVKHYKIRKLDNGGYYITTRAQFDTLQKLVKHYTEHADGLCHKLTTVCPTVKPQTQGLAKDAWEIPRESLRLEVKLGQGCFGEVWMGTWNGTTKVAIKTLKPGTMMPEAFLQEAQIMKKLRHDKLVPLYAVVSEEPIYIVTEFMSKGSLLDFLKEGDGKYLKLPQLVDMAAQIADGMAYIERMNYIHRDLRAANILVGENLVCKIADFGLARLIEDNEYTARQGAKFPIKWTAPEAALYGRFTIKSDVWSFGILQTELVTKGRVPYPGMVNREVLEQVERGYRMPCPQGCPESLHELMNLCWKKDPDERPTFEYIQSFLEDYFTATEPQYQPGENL
Assay [3] has as its target protein kinases (human kinome) (Homo sapiens, UniProt P42684). In kind it is cell-based. As to conditions: for logFC: ABL2 (P42684) protein abundance, degrader vs DMSO, down.
For assay [4], the target named is protein kinases (human kinome) (Homo sapiens, UniProt Q16539). In kind it is cell-based. The following applies: for logFC of MAPK14: Accession Q16539; for logFC MAPK14: MAPK14, accession Q16539, direction of change down.
Sequence of protein kinases (human kinome) (Homo sapiens, UniProt Q16539) (Q16539 whole entry): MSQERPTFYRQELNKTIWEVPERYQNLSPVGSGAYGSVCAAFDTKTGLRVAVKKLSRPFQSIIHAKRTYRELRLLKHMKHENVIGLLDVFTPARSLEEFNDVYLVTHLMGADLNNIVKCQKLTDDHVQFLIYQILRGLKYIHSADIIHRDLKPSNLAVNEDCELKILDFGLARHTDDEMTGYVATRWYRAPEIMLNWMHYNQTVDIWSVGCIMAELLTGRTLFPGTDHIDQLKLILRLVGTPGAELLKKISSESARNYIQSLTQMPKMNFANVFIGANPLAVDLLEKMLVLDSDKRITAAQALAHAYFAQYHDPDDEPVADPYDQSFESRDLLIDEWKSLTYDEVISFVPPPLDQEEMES
Assay [5] has as its target T1, protein kinases (human kinome) (Homo sapiens, UniProt Q9UEE5).
T1 sequence (Q9UEE5 1-414): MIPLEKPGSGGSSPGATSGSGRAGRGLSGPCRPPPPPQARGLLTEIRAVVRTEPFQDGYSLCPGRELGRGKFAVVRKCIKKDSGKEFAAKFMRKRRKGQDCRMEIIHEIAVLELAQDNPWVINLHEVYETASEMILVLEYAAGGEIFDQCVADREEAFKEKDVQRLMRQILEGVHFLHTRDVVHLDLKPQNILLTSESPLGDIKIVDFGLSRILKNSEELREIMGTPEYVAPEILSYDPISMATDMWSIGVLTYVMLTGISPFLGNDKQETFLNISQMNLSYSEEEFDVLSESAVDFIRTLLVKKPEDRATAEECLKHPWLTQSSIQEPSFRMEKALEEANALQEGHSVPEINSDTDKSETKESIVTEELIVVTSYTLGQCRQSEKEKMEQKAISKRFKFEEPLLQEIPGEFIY
It counts as cell-based. As to conditions: STK17A Q9UEE5.

Assay [6] addresses T2, protein kinases (human kinome) (Homo sapiens, UniProt O94768).
T2 sequence (O94768 1-372): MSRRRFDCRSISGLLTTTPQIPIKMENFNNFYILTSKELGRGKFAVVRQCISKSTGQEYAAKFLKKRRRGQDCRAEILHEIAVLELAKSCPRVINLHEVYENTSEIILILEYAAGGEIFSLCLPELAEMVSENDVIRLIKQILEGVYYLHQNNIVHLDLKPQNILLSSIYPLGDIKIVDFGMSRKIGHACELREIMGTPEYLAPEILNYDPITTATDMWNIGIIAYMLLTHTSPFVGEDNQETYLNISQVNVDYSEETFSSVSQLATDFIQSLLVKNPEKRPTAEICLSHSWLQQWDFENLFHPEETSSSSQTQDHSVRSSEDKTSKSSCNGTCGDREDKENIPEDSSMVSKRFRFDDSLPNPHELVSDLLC
In kind it is cell-based. As to conditions: for logFC STK17B (O94768): direction down; for logFC: STK17B (O94768).

Setting [7] is: MAPK14 (Q16539) protein abundance, degrader vs DMSO, down.
Where [8] appears, read: MAPK14 (Q16539), experiment wp168.

Sequence of extended human kinome (kinase-like proteins) (Q16875 whole entry): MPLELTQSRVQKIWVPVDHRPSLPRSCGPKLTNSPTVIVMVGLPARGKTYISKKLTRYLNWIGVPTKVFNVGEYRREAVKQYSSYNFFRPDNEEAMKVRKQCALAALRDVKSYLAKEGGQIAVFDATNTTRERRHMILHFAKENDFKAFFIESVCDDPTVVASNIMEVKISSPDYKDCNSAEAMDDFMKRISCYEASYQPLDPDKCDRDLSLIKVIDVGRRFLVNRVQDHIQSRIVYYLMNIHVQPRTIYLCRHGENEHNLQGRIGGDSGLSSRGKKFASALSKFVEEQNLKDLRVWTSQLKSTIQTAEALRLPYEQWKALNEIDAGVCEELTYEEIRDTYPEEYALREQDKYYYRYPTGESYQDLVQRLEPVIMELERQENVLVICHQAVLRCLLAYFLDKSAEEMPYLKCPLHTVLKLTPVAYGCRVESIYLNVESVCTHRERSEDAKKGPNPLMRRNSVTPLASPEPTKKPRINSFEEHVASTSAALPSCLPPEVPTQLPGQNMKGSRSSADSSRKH
Sequence of protein kinases (human kinome) (Homo sapiens, UniProt P42684) (P42684 whole entry): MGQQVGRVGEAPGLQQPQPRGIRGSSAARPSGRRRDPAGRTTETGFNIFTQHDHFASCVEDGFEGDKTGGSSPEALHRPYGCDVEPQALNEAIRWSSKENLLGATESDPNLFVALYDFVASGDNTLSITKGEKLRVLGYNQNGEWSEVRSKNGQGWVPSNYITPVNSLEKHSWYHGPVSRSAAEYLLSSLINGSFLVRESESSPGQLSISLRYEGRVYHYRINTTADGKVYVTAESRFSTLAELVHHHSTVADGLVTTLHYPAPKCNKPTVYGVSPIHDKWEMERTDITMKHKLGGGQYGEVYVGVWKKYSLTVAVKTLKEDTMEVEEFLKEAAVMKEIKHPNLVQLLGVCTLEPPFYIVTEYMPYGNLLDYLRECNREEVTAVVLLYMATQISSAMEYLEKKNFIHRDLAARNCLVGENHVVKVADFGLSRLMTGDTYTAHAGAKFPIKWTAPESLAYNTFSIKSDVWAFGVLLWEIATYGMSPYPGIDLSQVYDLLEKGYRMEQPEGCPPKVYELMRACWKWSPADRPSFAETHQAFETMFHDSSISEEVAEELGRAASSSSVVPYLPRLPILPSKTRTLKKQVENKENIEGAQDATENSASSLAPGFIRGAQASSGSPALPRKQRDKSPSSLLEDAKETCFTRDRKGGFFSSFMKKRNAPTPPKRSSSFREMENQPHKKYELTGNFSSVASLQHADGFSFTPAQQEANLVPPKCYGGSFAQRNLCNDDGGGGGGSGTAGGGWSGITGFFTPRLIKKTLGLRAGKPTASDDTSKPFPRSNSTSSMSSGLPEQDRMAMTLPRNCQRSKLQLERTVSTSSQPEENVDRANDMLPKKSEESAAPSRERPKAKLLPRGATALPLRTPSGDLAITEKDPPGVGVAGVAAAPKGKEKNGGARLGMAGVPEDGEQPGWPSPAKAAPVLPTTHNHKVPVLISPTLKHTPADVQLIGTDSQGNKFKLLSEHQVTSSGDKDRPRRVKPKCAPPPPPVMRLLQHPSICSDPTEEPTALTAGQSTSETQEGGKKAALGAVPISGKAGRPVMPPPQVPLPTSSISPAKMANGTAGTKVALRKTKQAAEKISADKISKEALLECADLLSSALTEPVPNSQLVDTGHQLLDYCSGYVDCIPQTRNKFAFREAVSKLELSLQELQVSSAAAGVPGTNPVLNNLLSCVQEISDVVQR

For `Cc1ccc(NC(=O)c2cccc(C(F)(F)F)c2)cc1N1Cc2cnc(Nc3ccc(N4CCN(Cc5cn(CCCCCOc6cccc7c6C(=O)N(C6CCC(=O)NC6=O)C7=O)nn5)CC4)nc3)nc2N(C)C1=O` (stereo not shown) [DB0646, N-(3-(7-((6-(4-((1-(5-((2-(2,6-Dioxopiperidin-3-yl)-1,3-dioxoisoindolin-4-yl)oxy)pentyl)-1H-1,2,3-triazol-4-yl)methyl)piperazin-1-v)pyridin-3-yl)amino)-1-methyl-2-oxo-1,4-dihydropyrimido[4,5-d]pyrimidin-3(2H)-yl)-4-methylphenyl)-3-(trifluoromethyl)benzamide], the “logFC PFKFB3” value in assay [1] (experiment wp045) was −0.5182; in assay [1] (experiment wp160, 8 hr), −0.3754. In addition, the logFC is listed as −0.3957 in assay [2] (experiment wp105); −0.3957 in assay [2] (experiment wp105, direction down); −0.471 in assay [2] (experiment wp172); −0.471 in assay [2] (experiment wp172, direction down); −0.5029 in assay [3] (4 hr); −0.7288 in assay [3] (8 hr). Moreover, the logFC was −0.5941 and −0.5342 and −0.5362 in assay [3]; −0.7793 and −0.6013 in assay [4] (setting [7]); −0.7601 in assay [4] (MAPK14 (Q16539), experiment wp107); −0.5814 in assay [4] (MAPK14 (Q16539), experiment wp114); −0.6392 in assay [4] (MAPK14 (Q16539), experiment wp117); −0.7821 in assay [4] (MAPK14 (Q16539), experiment wp152). For the same molecule, the logFC in assay [4] (MAPK14 (Q16539), experiment wp160, 2 hr) is given as −0.4404; in assay [4] (MAPK14 (Q16539), experiment wp160, 4 hr), −0.7162; in assay [4] (MAPK14 (Q16539), experiment wp160, 8 hr), −1.153; in assay [4] (MAPK14 (Q16539), experiment wp172) it was −0.6469. The “logFC ABL2 (P42684)” value in assay [3] (Experiment wp045) was −0.5941; in assay [3] (Experiment wp107), −0.5342; in assay [3] (experiment wp152) it was −0.5362; in assay [3] (experiment wp160, 4 hr), −0.5029; in assay [3] (experiment wp160, 8 hr) it was −0.7288. Moreover, the “logFC of MAPK14” value in assay [4] (experiment wp172) is −0.6469. The “logFC MAPK14” value in assay [4] (experiment wp045) was −0.7793; in assay [4] (experiment wp103), −0.6013; in assay [4] (experiment wp107) it was −0.7601; in assay [4] (experiment wp114), −0.5814; in assay [4] (experiment wp117), −0.6392; in assay [4] (experiment wp152) it was −0.7821. Further, the “logFC MAPK14” value in assay [4] (experiment wp160, 2 hr) is recorded as −0.4404; in assay [4] (experiment wp160, 4 hr) it was −0.7162; in assay [4] (experiment wp160, 8 hr), −1.153.

For the molecule `Cc1ccc(NC(=O)c2cccc(C(F)(F)F)c2)cc1N1Cc2cnc(Nc3ccc(N4CCN(CCCCCCOc5cccc6c5C(=O)N(C5CCC(=O)NC5=O)C6=O)CC4)nc3)nc2N(C)C1=O` (stereo not shown) [DB0663], the “logFC PFKFB3” value in assay [1] (experiment wp045) is reported as −0.4221. Moreover, the logFC in assay [3] is given as −0.6022; in assay [4] (setting [7]), −0.6293. Further, the “logFC ABL2 (P42684)” value in assay [3] (Experiment wp045) is −0.6022. The “logFC MAPK14” value in assay [4] (experiment wp045) is reported as −0.6293.

On to `Cc1ncsc1-c1ccc([C@H](C)NC(=O)[C@@H]2C[C@@H](O)CN2C(=O)[C@@H](NC(=O)CCCCCN2CCc3cc(Nc4ncc(C5CC5)c(NCCCNC(=O)C5CCC5)n4)ccc3C2)C(C)(C)C)cc1` [BSJ.05.026], for which the logFC in assay [5] (experiment wp195) is reported as −0.5209; in assay [6] (experiment wp195) it was −0.9299. Besides, in assay [5] (experiment wp195), the “logFC STK17A” value is reported as −0.5209. In assay [6] (Experiment wp195), the “logFC STK17B (O94768)” value is listed as −0.9299.

Consider `Cc1ncsc1-c1ccc([C@H](C)NC(=O)[C@@H]2C[C@@H](O)CN2C(=O)[C@@H](NC(=O)CCCCCN2CCN(c3ccc(Nc4ncc5scc(-c6cccc(NS(C)(=O)=O)c6)c5n4)cc3)CC2)C(C)(C)C)cc1` [RSS0680, (2S,4R)-1-((S)-3,3-Dimethyl-2-(6-(4-(4-((7-(3-(methylsulfonamido)phenyl)thieno[3,2-d]pyrimidin-2-yl)amino)phenyl)piperazin-1-yl)hexanamido)butanoyl)-4-hydroxy-N—((S)-1-(4-(4-methylthiazol-5yl)phenyl)ethyl)pyrrolidine-2-carboxamide], for which the logFC in assay [5] (experiment wp080) was −1.118; in assay [5] (experiment wp117) it was −1.379; in assay [6] (experiment wp080), −1.375; in assay [6] (experiment wp117), −1.373. Besides, the “logFC STK17A” value in assay [5] (experiment wp080) was −1.118; in assay [5] (experiment wp117) it was −1.379. The “logFC STK17B (O94768)” value is recorded as −1.375 in assay [6] (Experiment wp080) and −1.373 in assay [6] (Experiment wp117).

As to `O=C1CCC(N2C(=O)c3cccc(NCCCCCCCCN4CCC(NC(=O)c5[nH]ncc5NC(=O)c5c(Cl)cccc5Cl)CC4)c3C2=O)C(=O)N1` (stereo not shown) [MFH.5.126.1], in assay [5] (experiment wp076), the logFC was −0.8984 and the “logFC STK17A” value is on record as −0.8984. In addition, the “logFC STK17B (O94768)” value in assay [6] (Experiment wp076) is recorded as −0.5821. The same molecule displayed a logFC in assay [6] (experiment wp076) of −0.5821.

Consider `O=C(COc1cccc2c1C(=O)N(C1CCC(=O)NC1=O)C2=O)NCCCCCCCN1CCc2cc(Nc3ncc(C4CC4)c(NCCCNC(=O)C4CCC4)n3)ccc2C1` (stereo not shown) [BSJ.04.178], for which, in assay [5] (experiment wp134), the logFC is recorded as −0.7107 and the “logFC STK17A” value is −0.7107. Besides, the “logFC STK17B (O94768)” value in assay [6] (Experiment wp134) is −1.604. The logFC in assay [6] (experiment wp134) is given as −1.604.

Turning to `Cc1ccc(NC(=O)c2cccc(C(F)(F)F)c2)cc1N1Cc2cnc(Nc3ccc(N4CCN(CCCCC(=O)N[C@H](C(=O)N5C[C@H](O)C[C@H]5C(=O)N[C@@H](C)c5ccc(-c6scnc6C)cc5)C(C)(C)C)CC4)nc3)nc2N(C)C1=O` [DB1113], in assay [1] (experiment wp168), the “logFC PFKFB3” value is −0.3724. For the same molecule, the logFC in assay [3] is −1.723; in assay [4] (setting [8]), −1.73. Further, the “logFC ABL2 (P42684)” value in assay [3] (Experiment wp168) was −1.723. The “logFC of MAPK14” value in assay [4] (experiment wp168) is −1.73.

As for `Cc1ccc(NC(=O)c2cccc(C(F)(F)F)c2)cc1N1Cc2cnc(Nc3ccc(N4CCN(CCCOc5cccc6c5C(=O)N(C5CCC(=O)NC5=O)C6=O)CC4)nc3)nc2N(C)C1=O` (stereo not shown) [DB0662], the “logFC PFKFB3” value in assay [1] (experiment wp168) was −0.4517. Moreover, the logFC is −0.8025 in assay [2] (experiment wp168); −0.8025 in assay [2] (experiment wp168, direction down); −1.207 in assay [3]; −1.002 in assay [4] (setting [8]). The “logFC ABL2 (P42684)” value in assay [3] (Experiment wp168) was −1.207. For the same molecule, the “logFC MAPK14” value in assay [4] (experiment wp166) is −1.002.

Turning to `Cn1c(=O)c(-c2c(Cl)cccc2Cl)cc2cnc(Nc3ccc(OCCNC(=O)CCCCCCNC(=O)COc4cccc5c4C(=O)N(C4CCC(=O)NC4=O)C5=O)cc3)nc21` (stereo not shown) [SB1.G.192.1], the logFC in assay [2] (experiment wp131) is −1.244; in assay [2] (experiment wp131, direction down) it was −1.244; in assay [3] it was −2.44; in assay [4] (setting [7]), −0.8915 and −0.7293; in assay [4] (MAPK14 (Q16539), experiment wp131), −0.7463. The “logFC ABL2 (P42684)” value in assay [3] (experiment wp071) is given as −2.44. Further, the “logFC MAPK14” value in assay [4] (experiment wp071) is recorded as −0.8915; in assay [4] (experiment wp081), −0.7293; in assay [4] (experiment wp131), −0.7463.
